Test results reported in paper PMC5487351, “Galactosylsphingamides: new α-GalCer analogues to probe the F’-pocket of CD1d” (Scientific Reports, 2017).

Biological target: T1, mCD1d (mCD1-β2M) (Mus musculus, UniProt P11609)
T1 construct: gene Cd1d1; soluble CD1d ectodomain with beta2-microglobulin, insect cells; glycolipid-loaded; with Beta-2-microglobulin
T1 sequence (P11609 19-297): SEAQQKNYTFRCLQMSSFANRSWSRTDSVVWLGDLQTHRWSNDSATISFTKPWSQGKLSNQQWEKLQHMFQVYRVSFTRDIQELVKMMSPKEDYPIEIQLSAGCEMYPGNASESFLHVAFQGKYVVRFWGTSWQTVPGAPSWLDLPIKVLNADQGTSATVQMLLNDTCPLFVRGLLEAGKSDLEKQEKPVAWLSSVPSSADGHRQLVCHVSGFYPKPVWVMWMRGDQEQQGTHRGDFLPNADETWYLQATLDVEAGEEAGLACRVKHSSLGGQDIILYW
T1 sequence (P01887 21-119 partner): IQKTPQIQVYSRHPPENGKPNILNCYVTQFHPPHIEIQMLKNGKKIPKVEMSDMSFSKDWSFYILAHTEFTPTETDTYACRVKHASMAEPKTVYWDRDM
Experiment: X-ray crystal structure, […] Å
Settings: CD1d binding groove (A' and F' pockets); spacer lipid in A' pocket

CCCCCCCC(=O)N[C@@H](CO[C@H]1O[C@H](CO)[C@H](O)[C@H](O)[C@H]1O)[C@H](O)[C@H](O)CCCC(=O)NCCCCCCc1ccccc1 [5d, (5R,6S,7S)-5,6-dihydroxy-8-O-(α-D-galactopyranosyl)-7-octanamido-N-(6-phenylhexyl)octanamide]
X-ray crystal structure, 1.75 Å: we determined the crystal structure of the CD1d/5d-complex
